Test results as given in patent US20140221286A1, “SODIUM CHANNEL BLOCKERS REDUCE GLUCAGON SECRETION” (Gilead Sciences, Inc., priority 2011, published 2014).

Key:
rat pancreatic islets [1] = experiment: Arginine-induced glucagon secretion in rat pancreatic islets; assay type: cell-based; settings: L-arginine 20 mM
ZDF diabetic rats = experiment: ZDF diabetic rats, animal model of type 2 diabetes; assay type: in vivo, rat; settings: for water consumption (surrogate marker for diabetes) / HbA1c levels versus vehicle group / fasting plasma glucose levels versus vehicle: in Purina 5008 diet; for water consumption (surrogate marker for diabetes): during diabetes development; for HbA1c levels versus vehicle group: weeks 4, 6 and 8; for fasting plasma glucose levels versus vehicle: weeks 7 and 9
Protocol: All sections from fluorescent staining were viewed under fluorescent microscope and the stained areas were digitally photographed at a magnification of 20×. The images taken at different magnification were normalized using the standard ruler grade (S1 Finder Graticule, 68040, Electron Microscopy Science, Hatfield, Pa.). Analyses of islet areas and entire section areas were performed using ImageJ software (NIH, MD). Three sections from each of 6 animals per treatment group were analyzed. Data are presented as mean±SEM. *, p<0.05; **, p<0.01; ***, p<0.001 by One-way ANOVA.
Male ZDF Leprfa/Crl rats were received at 5 weeks of age from Charles River Laboratories Inc., (Wilmington, Mass.) and were acclimated until study initiation at 6 weeks of age. Drugs were given to the animals in Purina 5008 for 10 weeks at doses approximately 170 mg/kg/d of ranolazine, 0.6 mg/kg/d of compound A and 30 mg/kg/d of sitagliptin as positive control. Fasting (12-14 h fast) and non-fasting blood samples were obtained by tail-nick and blood glucose was measured using a Freestyle Lite glucose meter (Abbott Laboratories Inc., Abbott Park, Ill.). HbA1c levels were monitored every other week. Twenty four hour water consumption as surrogate marker for diabetes for each rat was measured at least once per week.

[2] = system: peak Na+ current (INa) in rat isolated pancreatic α-cells; experiment: Peak Na+ current (INa) in isolated pancreatic α-cells, perforated patch-clamp; assay type: cell-based
Protocol: Acutely isolated pancreatic islets were allowed to recover overnight at 37° C./5% CO2 in Islet Media (RMPI 1640 supplemented with 10 mM HEPES, 1 mM sodium pyruvate, 10% FBS, 100 U/mL penicillin, 100 μg/mL streptomycin, 2 mM L-glutamine). The islets were resuspended and then centrifuged for 3 minutes at 200×g. The supernatant was discarded and 20 mL of filtered DPBS-EDTA was added (DPBS without Ca and Mg, 3 mM EDTA (G Biosciences), 0.5% BSA (Sigma), 1.5 mM dextrose (Sigma). The islets were incubated for 3 minutes at 37° C./5% CO2 and then centrifuged for 3 minutes at 200×g. The pellet was resuspended in 5 mL of pre-warmed Accutase (Sigma) and transferred into a 60 mm suspension culture dish and incubated for 3 minutes at 37° C./5% CO2. The digested islets were centrifuged for 3 minutes at 200×g to remove the accutase and the pellet was resuspended in 20 mL of room temperature DPBS-EDTA as defined above but with BSA increased to 4%. The digested islets were gently triturated 10 times with a flamed, glass Pasteur pipette and the suspension was then applied to a […] cell strainer. The resulting single cell suspension was centrifuged for 3 minutes at 200×g and the cells were resuspended in 2 mL of pre-warmed Islet Media. The number of live cells was counted and diluted to 1×10^5 with Islet Media. […]
Membrane potential and ion channel currents were recorded 24-72 hours after dispersion using the perforated patch configuration. […] Series resistance (Rs) was monitored using a voltage step from −70 mV to 0 mV (5 ms, 0.5 Hz) and was allowed to stabilize prior to beginning the experiment (Rs<30 MOhm).
The identity of the α-cell was confirmed using cell size (membrane capacitance <6 pF) and the presence of electrical activity in low (3 mM) extracellular glucose, which are hallmarks of dispersed α-cells. […] All recordings were made using pClamp 10.2 and were analyzed using Microsoft Excel 2003, Graphpad Prism7 or OriginPro7.
Recordings of ionic currents were made at 32° C. […] INa was measured using a voltage step to 0 mV (20 ms, 0.2 Hz) from a holding potential of either −70 mV or −90 mV. […]

rat pancreatic islets [3] = experiment: Veratridine-induced glucagon secretion in rat pancreatic islets; assay type: cell-based; settings: veratridine 30 μM

Question: How did the “reduction of L-arginine-induced increase in glucagon secretion” value (rat pancreatic islets [1]; at 10 μM) turn out when COc1ccccc1OCC(O)CN1CCN(CC(=O)Nc2c(C)cccc2C)CC1 (racemic) [Ranolazine, ±-N-(2,6-dimethylphenyl)-4-[2-hydroxy-3-(2-methoxyphenoxy)-propyl]-1-piperazineacetamide] was run?
Answer: 31±9%

Question: What about the “insulin staining per islet” value (ZDF diabetic rats; 10 weeks treatment) of the same molecule?
Answer: 91.2±1.5%

Question: And the insulin/glucagon ratio (ZDF diabetic rats; 10 weeks treatment)?
Answer: 12.1±2.4

Question: What about the islet area/pancreas area (ZDF diabetic rats; 10 weeks treatment) of the same molecule?
Answer: 0.36±0.1%

Question: What about the “staining of glucagon per islet versus vehicle” value (ZDF diabetic rats; 10 weeks treatment) of the same molecule?
Answer: significantly less

Question: What about the “water consumption (surrogate marker for diabetes)” value (ZDF diabetic rats) of the same molecule?
Answer: significantly prevented the increase

Question: What about the “HbA1c levels versus vehicle group” value (ZDF diabetic rats) of the same molecule?
Answer: significantly lower

Question: What about the “fasting plasma glucose levels versus vehicle” value (ZDF diabetic rats) of the same molecule?
Answer: significantly lower

Question: And the “block of peak INa” value ([2]; 10 μM, holding potential −70 mV)?
Answer: 25%

Question: What about the “block of peak INa” value ([2]; 10 μM, holding potential −90 mV) of the same molecule?
Answer: 10%

Question: What about the “reduction of veratridine-induced glucagon secretion (in words)” value (rat pancreatic islets [3]) of the same molecule?
Answer: concentration-dependently reduced

Question: FC(F)(F)Oc1ccc(-c2ccc3nnc(C(F)(F)F)n3c2)cc1 [Compound A, 6-(4-(trifluoromethoxy)phenyl)-3-(trifluoromethyl)-[1,2,4]triazolo[4,3-α]pyridine] was tested. Which “reduction of L-arginine-induced increase in glucagon secretion” value (rat pancreatic islets [1]; at 1 μM) did it give?
Answer: 24±6%

Question: And the “insulin staining per islet” value (ZDF diabetic rats; 10 weeks treatment)?
Answer: 90.0±2.8%

Question: What about the islet area/pancreas area (ZDF diabetic rats; 10 weeks treatment) of the same molecule?
Answer: 0.51±0.16%

Question: And the “staining of glucagon per islet versus vehicle” value (ZDF diabetic rats; 10 weeks treatment)?
Answer: significantly less

Question: And the “water consumption (surrogate marker for diabetes)” value (ZDF diabetic rats)?
Answer: significantly prevented the increase

Question: And the “HbA1c levels versus vehicle group” value (ZDF diabetic rats)?
Answer: significantly lower

Question: And the “fasting plasma glucose levels versus vehicle” value (ZDF diabetic rats)?
Answer: significantly lower

Question: And the “block of peak INa” value ([2]; 1 μM, at −90 and -70 mV)?
Answer: 40

Question: And the “reduction of veratridine-induced glucagon secretion (in words)” value (rat pancreatic islets [3])?
Answer: concentration-dependently reduced
